Reference: US10117940B2, “DPI formulation containing sulfoalkyl ether cyclodextrin” (CyDex Pharmaceuticals, Inc., priority 2004, dated 2018)

Tests used:
[1] = Electrostatic charge measurement with Faraday cage apparatus; type: physicochemical; conditions: for Electrostatic charge of active agent, Approx. Magnitude: exemplary active agent of the charge range
Protocol: Determination of the electrostatic charge of the SAE-CD-containing carrier and the active agent-containing composition.
Electrostatic charge measurements were performed using a Faraday Cage apparatus that determines the potential difference changes as a function of time during powder flow onto a conducting surface. Samples were weighed and transferred from original containers to wax coated weighing papers. These were mounted to a vibrating spatula (set at maximum vibration level). The angle of the spatula was set at a constant angle (30 degrees). Powder was dispensed to the Faraday cage that was connected to a electrometer. Data collection was performed using Windaq interface and a PC computer sampling at 240 Hz. The area under the electrostatic dissipation curve was determined (Voltage×time) and charge (nC/g) was calculated from the known resistance of the setup.

rats = conditions: inhaled aerosol composition, SBE-CD present alone; cited from earlier work
healthy volunteers = conditions: nasal spray in aqueous sulfobutylether-beta-cyclodextrin buffer solution; cited from earlier work

| Compound | Polarity and magnitude of electrostatic charge (in words) [1] | Electrostatic charge of active agent, Approx. Magnitude [1] [nC/g] | Toxicity (rats) | Side effects (healthy volunteers) | Electrostatic charge ([1]; micronized for inhalation) [nC/g] |
| --- | --- | --- | --- | --- | --- |
| CC(C)(C)NCC(O)c1ccc(O)c(CO)c1 (stereo not drawn) [Albuterol, alpha^1-(((1,1-dimethylethyl)amino)methyl)-4-hydroxy-1,3-benzenedimethanol] | high positive charge | >4 | – | – | – |
| sulfobutyl ether derivative of beta cyclodextrin [SBE-CD] | – | – | non-toxic | – | – |
| Cc1ncc2n1-c1ccc(Cl)cc1C(c1ccccc1F)=NC2 [midazolam] | – | – | – | No serious side effects | – |
| O=C(O)c1cc(=O)c2c(OCC(O)COc3cccc4oc(C(=O)O)cc(=O)c34)cccc2o1 [Na Cromolyn, sodium cromolyn] | electroneutral | −2 to −0.5 | – | – | −1 to −1.7 |
